No end group written: not given here.
What was measured:
sensory panel [1] = experiment: Taste threshold in model broth (taste modulating properties), duo-trio tests; assay type: in vivo; settings: for Threshold in model broth / Taste properties in model broth: model broth pH 6.0; for Threshold in model broth: taste modulating threshold; for Taste threshold in model broth: as listed in Table 6
Procedure: (§1) The threshold concentrations of 21 newly identified peptides were determined in water for the intrinsic taste and in model broth (pH 6.0 adjusted with 1% formic acid) for the taste modulating properties, respectively (Table 4). The peptides were dissolved, serially diluted 1:2, and presented to the panel using duo-trio-tests with ascending concentrations as reported in literatures. The geometric mean of the last and the second to last concentration was calculated and taken as the individual recognition threshold. The threshold value of the sensory panel was approximated by averaging the threshold values of the individuals in two independent sessions. [formula] • wherein • Cp: the threshold of a panelist, • C1: the first correctly evaluated concentration, • C0: the first misjudged concentration [formula] • wherein • Cs: the thresholds of total panelists, • Cp: the threshold of a panelist, • n: the number of panel members

sensory panel [2] = experiment: Taste threshold in water (intrinsic taste), duo-trio tests; assay type: in vivo
Procedure: as §1

Panelists = experiment: Salt isointensity test; assay type: in vivo; settings: for Average perceived salt isointensity / Salt-taste enhancing or reducing property: peptide 1 mmol/L in model broth containing 50 mM NaCl; for Enhancement or reduction: versus 50 mM NaCl, isointensity above 50 = enhancement, below 50 = reduction, peptide 1 mmol/L
Procedure: To investigate the effects of peptides on the perceived saltiness, a salt isointensity test was performed according to literatures. In salt-isointensity test, the peptides (1 mmol/L) were spiked into model broth containing 50 mM NaCl and the panelists were asked to evaluate the intensity of saltiness compared with the following NaCl concentrations of 30, 40, 50, 60, 70, and 80 mmol/L. The results are shown in Table 5.

[3] = Quantification of peptides in the hydrolyzed chicken plasma sample and DoT factors; settings: ratio of concentration in hydrolyzed chicken plasma sample to taste threshold in model broth
Excerpt: To identify the peptides which play a key role on taste-active and taste-modulating effects, not only the 21 newly identified peptides, but also literature-known basic tastants (e.g., amino acids, γ-glutamyl peptides, cations, anions, etc.) were quantified in the hydrolyzed chicken plasma sample. Focusing on the 21 newly identified peptides, the taste quality, taste thresholds, dose over threshold (DOT) factors and concentrations of the peptides in the hydrolyzed chicken plasma sample are shown in Table 6. The taste thresholds determined for the newly identified peptides (those are listed in Table 6) were used for the calculation of DoT factors which are defined as the ratio of the concentration of a substance and its corresponding taste threshold concentration. The DoT factors enable a first estimation of the taste contribution as substances with DoT factors≥1 most likely contribute directly to the perceived taste.

sensory panel [4] = experiment: Taste threshold in model broth (taste modulating properties), duo-trio tests; assay type: in vivo; settings: as listed in Table 7
sensory panel [5] = experiment: Taste threshold in commercial chicken soup, duo-trio tests; assay type: in vivo; settings: for Taste threshold in food products, Commercial chicken soup: 3 g powder in 150 mL, spiked at 2 mmol/L, diluted
Excerpt: To investigate the taste-modulating performance of the identified peptides in food products, the commercial chicken soup and model broth were used for further sensory experiments. According to the sensory experiment, the peptides such as Pro-Val-Leu-Lys (SEQ ID NO: 1), Pro-Leu-Pro-Arg (SEQ ID NO: 2), Glu-Ala-Glu-Phe-Asp (SEQ ID NO: 3), Pro-Gln-Pro-Glu-Arg (SEQ ID NO: 5), and Glu-Asp-Ala-Pro-Val-Leu-His (SEQ ID NO: 7) are spiked into the commercial chicken soup (Netto Marken-Discount AG&CO.KG, Maxhütte-Haidhof) and the model broth. According to the experiments, 3 g of the commercial chicken soup powder was dissolved in 150 mL boiling water. The peptides (each 2 mmol/L) were spiked into 20 mL solution of this solution. Afterwards, the taste threshold was determined by means of duo-trio-tests as previously described (using chicken soup as reference).

| Substance | Threshold in model broth (sensory panel [1]) [µmol/L] | Taste properties in water (sensory panel [2]) | Threshold in water (sensory panel [2]) | Average perceived salt isointensity (Panelists) [mmol/L NaCl] | Salt-taste enhancing or reducing property (Panelists) | Enhancement or reduction (Panelists) [%] | DoT factor [3] | Taste properties in model broth (sensory panel [1]) | Taste threshold in food products, Model broth (sensory panel [4]) [µmol/L] | Threshold in model broth, times lower than in commercial chicken soup (sensory panel [5]; chicken soup versus model broth) [times] | Taste threshold in food products, Commercial chicken soup (sensory panel [5]; commercial chicken soup) | Taste threshold in model broth (sensory panel [1]) [µmol/L] | Not differentiated up to max concentration tested in commercial chicken soup (sensory panel [5]; commercial chicken soup) [mmol/L] |
| --- | --- | --- | --- | --- | --- | --- | --- | --- | --- | --- | --- | --- | --- |
| EFDEKAPD [SEQ ID NO: 11] | 67 | bitter | 865 µmol/L | 62.1 | salt-tase enhancing | 24 |  |  |  |  |  |  |  |
| EDEVLATP [SEQ ID NO: 21] | 96 |  | 894 µmol/L | 59.8 | salt-tase enhancing | 20 |  |  |  |  |  |  |  |
| Pro-Leu-Pro-Arg (PLPR; Poultry) [SEQ ID NO: 2] | 112 | astringent | 296 µmol/L |  |  |  | 0.0 | umami, kokumi | 112 | 4 | 418 µmol/L |  |  |
| EGDSAAI [SEQ ID NO: 19] | 212 |  | tasteless |  |  |  | 0.2 | umami, kokumi |  |  |  |  |  |
| Glu-Asp-Met-Ala-Pro (EDMAP; Poultry) [SEQ ID NO: 13] | 151 |  | 1024 µmol/L | 43.8 |  | 13 | 0.2 | kokumi, salty |  |  |  |  |  |
| Arg-Asn-Gly-Pro-Arg (RNGPR; Poultry) [SEQ ID NO: 17] | 101 |  | tasteless |  |  |  | 0.0 | kokumi, umami |  |  |  |  |  |
| Pro-Val-Leu-Lys (PVLK; Poultry) [SEQ ID NO: 1] | 296 |  | tasteless | 42.9 | salt-tase reducing | 14 | 0.0 |  | 296 |  |  |  |  |
| Pro-Glu-Arg-Asn-Glu (PERNE; Poultry) [SEQ ID NO: 4] | 231 |  | 100 µmol/L |  |  |  | 0.1 |  |  |  |  |  |  |
| EEVEEEEVE [SEQ ID NO: 10] | 34 |  | 233 µmol/L |  |  |  | 0.1 | umami, kokumi |  |  |  |  |  |
| ENAPDQK [SEQ ID NO: 12] | 137 |  | 907 µmol/L |  |  |  | 0.2 | kokumi, umami |  |  |  |  |  |
| EPEGDVHQ [SEQ ID NO: 20] | 61 |  | 243 µmol/L |  |  |  |  | umami, kokumi |  |  |  |  |  |
| Pro-Val-Ala-Glu (PVAE; Poultry) [SEQ ID NO: 16] | 243 |  | 688 µmol/L | 62.0 | salt-tase enhancing | 24 | 0.7 | kokumi, salty |  |  |  |  |  |
| Glu-Ala-Glu-Phe-Asp (EAEFD; Poultry) [SEQ ID NO: 3] |  |  | 116 µmol/L | 43.0 | salt-tase reducing | 14 |  |  | 95 |  |  | 95 |  |
| EETPSHD [SEQ ID NO: 9] | 36 |  | 283 µmol/L |  |  |  | 0.1 | umami, kokumi |  |  |  |  |  |
| Pro-Gln-Pro-Glu-Arg (PQPER; Poultry) [SEQ ID NO: 5] | 133 |  | 705 µmol/L |  |  |  | 0.0 |  | 133 |  | No effect |  | > 2 |
| EDAPVLH [SEQ ID NO: 7] |  | astringent | 565 µmol/L |  |  |  | 0.1 |  | 236 |  |  | 236 |  |
| EFDARPT [SEQ ID NO: 8] | 351 |  | tasteless | 66.7 | salt-tase enhancing | 33 | 0.0 | kokumi, salty |  |  |  |  |  |
| EFDEKPAD [SEQ ID NO: 6] | 94 |  | tasteless | 60.0 | salt-tase enhancing | 20 |  |  |  |  |  |  |  |
| RAEDTATYY [SEQ ID NO: 18] | 247 |  | 610 µmol/L |  |  |  | 0.0 | kokumi, umami |  |  |  |  |  |
| Pro-Thr-Asp-Leu (PTDL; Poultry) [SEQ ID NO: 15] | 97 |  | tasteless |  |  |  |  |  |  |  |  |  |  |
| Pro-Ile-Asn-Asp-Asn (PINDN; Poultry) [SEQ ID NO: 14] | 26 |  | tasteless | 63.6 | salt-tase enhancing | 27 |  |  |  |  |  |  |  |
